Measured values reported in patent US9981930B1, “MAGL inhibitors” (ABIDE THERAPEUTICS, INC., priority 2016, dated 2018).

Experiments:
[1] = molecular target: T1, MAGL Human (Homo sapiens, UniProt Q99685); assay: In vitro competitive activity-based protein profiling (human); assay type: biochemical; details: human prefrontal cortex or cell membrane fractions; 30 min preincubation at 37° C.; FP-Rh or JW912 probe
T1 construct: Proteomes (human prefrontal cortex or cell membrane fractions); from tissue; host or cells: human prefrontal cortex or cell membrane fractions
T1 sequence (Q99685 1-303): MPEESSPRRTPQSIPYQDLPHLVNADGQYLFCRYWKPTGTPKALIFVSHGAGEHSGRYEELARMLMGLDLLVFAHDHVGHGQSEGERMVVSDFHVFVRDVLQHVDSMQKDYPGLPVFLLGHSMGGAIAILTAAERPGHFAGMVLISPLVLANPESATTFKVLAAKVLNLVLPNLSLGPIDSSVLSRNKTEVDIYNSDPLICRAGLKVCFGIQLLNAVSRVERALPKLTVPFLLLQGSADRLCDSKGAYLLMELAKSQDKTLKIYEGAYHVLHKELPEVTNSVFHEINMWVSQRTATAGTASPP
Experimental: In Vitro Competitive Activity-Based Protein Profiling (Human).
(§1) Proteomes (human prefrontal cortex or cell membrane fractions) (50 μL, 1.0-2.0 mg/mL total protein concentration) were preincubated with varying concentrations of inhibitors at 37° C. After 30 min, FP-Rh or JW912 (1.0 μL, 50 μM in DMSO) was added and the mixture was incubated for another 30 min at room temperature. Reactions were quenched with SDS loading buffer (15 μL-4×) and run on SDS-PAGE. Following gel imaging, serine hydrolase activity was determined by measuring fluorescent intensity of gel bands corresponding to MAGL using ImageJ 1.49k software.

[2] = molecular target: T2, MAGL (Mus musculus, UniProt O35678); assay: Mouse brain proteomes from inhibitor treated mice (ex vivo activity-based protein profiling after oral gavage); assay type: in vivo; details: 5 mg/kg oral gavage, C57Bl/6J mice, brain proteomes 4 h following administration
T2 construct: from tissue; host or cells: brain of wild-type C57Bl/6J mice
T2 sequence (O35678 1-303): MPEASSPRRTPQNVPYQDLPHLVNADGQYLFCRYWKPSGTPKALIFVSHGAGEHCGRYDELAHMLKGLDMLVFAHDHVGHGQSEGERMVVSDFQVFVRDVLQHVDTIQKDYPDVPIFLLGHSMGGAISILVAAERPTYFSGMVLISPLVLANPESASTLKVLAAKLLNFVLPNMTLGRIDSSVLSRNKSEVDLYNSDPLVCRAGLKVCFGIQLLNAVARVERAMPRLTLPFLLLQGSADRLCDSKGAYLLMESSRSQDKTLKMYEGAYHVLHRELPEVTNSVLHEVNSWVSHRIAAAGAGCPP
Experimental: as §1, with “(mouse brain membrane fraction” for “(human prefrontal cortex”, “lysates)” for “membrane fractions)”, “1.0” for “1.0-2.0”, “FP-Rh” for “FP-Rh or JW912”, “37° C.” for “room temperature.”, “(50” for “(15”
Preparation of Mouse Brain Proteomes from Inhibitor Treated Mice.

Row | IC50 [1] | inhibition at 5 mg/kg [2] | SMILES
1 | < 100 nM | – | O=C(O)CNc1cc(C(F)(F)F)ccc1CN1CCN(C(=O)OC(C(F)(F)F)C(F)(F)F)CC1 [Example 6, (2-((4-(((1,1,1,3,3,3-Hexafluoropropan-2-yl)oxy)carbonyl)piperazin-1-yl)methyl)-5-(trifluoromethyl)phenyl)glycine]
2 | < 100 nM | > 75% | O=C(O)CCCNc1cc(C(F)(F)F)ccc1CN1CCN(C(=O)OC(C(F)(F)F)C(F)(F)F)CC1 [Example 1, 4-((2-((4-(((1,1,1,3,3,3-Hexafluoropropan-2-yl)oxy)carbonyl)piperazin-1-yl)methyl)-5-(trifluoromethyl)phenyl)amino)butanoic acid]
3 | < 100 nM | > 75% | O=C(O)CCNc1cc(C(F)(F)F)ccc1CN1CCN(C(=O)OC(C(F)(F)F)C(F)(F)F)CC1 [Example 4, 3-((2-((4-(((1,1,1,3,3,3-Hexafluoropropan-2-yl)oxy)carbonyl)piperazin-1-yl)methyl)-5-(trifluoromethyl)phenyl)amino)propanoic acid]

Continued, compound first:

Row | SMILES | IC50 [1] | inhibition at 5 mg/kg [2]
4 | O=C(O)CCCNc1cc(Cl)ccc1CN1CCN(C(=O)OC(C(F)(F)F)C(F)(F)F)CC1 [Example 2, 4-((5-Chloro-2-((4-(((1,1,1,3,3,3-hexafluoropropan-2-yl)oxy)carbonyl)piperazin-1-yl)methyl)phenyl)amino)butanoic acid] | < 100 nM | 25 to 75%
5 | O=C(O)CNc1cc(Cl)ccc1CN1CCN(C(=O)OC(C(F)(F)F)C(F)(F)F)CC1 [Example 3, (5-Chloro-2-((4-(((1,1,1,3,3,3-hexafluoropropan-2-yl)oxy)carbonyl)piperazin-1-yl)methyl)phenyl)glycine] | < 100 nM | 25 to 75%
6 | O=C(O)CCNc1cc(Cl)ccc1CN1CCN(C(=O)OC(C(F)(F)F)C(F)(F)F)CC1 [Example 5, 3-((5-Chloro-2-((4-(((1,1,1,3,3,3-hexafluoropropan-2-yl)oxy)carbonyl)piperazin-1-yl)methyl)phenyl)amino)propanoic acid] | < 100 nM | –
7 | C[C@H](Nc1cc(C(F)(F)F)ccc1CN1CCN(C(=O)OC(C(F)(F)F)C(F)(F)F)CC1)C(=O)O [Example 7, (2-((4-(((1,1,1,3,3,3-hexafluoropropan-2-yl)oxy)carbonyl)piperazin-1-yl)methyl)-5-(trifluoromethyl)phenyl)-L-alanine] | < 100 nM | 25 to 75%
